In patent US20080044493A1, “Agent For Ameliorating The Maximum Passage Time Through Digestive Tract, Agent For Ameliorating Passage Time Through Digestive Tract And Preventive For Colon Cancer” (priority 2004, published 2008):

What was measured:
[1] = tested on: healthy subject (1 person) not suffering from constipation; experiment: Test Example 1: transit time through the digestive tract by radio-opaque markers, with fecal weight and defecation frequency; format: in vivo, human; conditions: for Maximum Transit Time through Digestive Tract (average) / Transit Time through Digestive Tract (average): Standard Deviation in parentheses
Text: The method proposed by Hinton et al. was invented to measure the time required from food ingestion to defecation, namely, transit time through the digestive tract. More specifically, a plurality of radio-opaque markers were taken with a meal, and the time required from food ingestion to defecation (ti) and the number of markers contained in the evacuated feces (xi) were inspected based on x-ray images of the collected feces, followed by calculation of transit time through the digestive tract using the following formula. Transit time through the digestive tract indicates an average time required for a plurality of radio-opaque markers taken simultaneously to be evacuated. [formula]
A test sample in a dose shown in Table 1, together with 15 markers, were administered per day with meals to a healthy subject (1 person) not suffering from constipation, and the markers in the feces of the subject were identified thereafter. Test samples were administered for 3 days, and during which the transit times through the digestive tract of 5 or 6 meals were measured. Transit time through the digestive tract calculated by the above formula after each meal and the time required for the last marker to be evacuated (maximum transit time through the digestive tract) were recorded. […] Statistical treatment was performed using t-tests. In addition to the marker identification, the fecal weight and defecation frequency were recorded, and daily average fecal weight and defecation frequency were calculated, and shown in Table 1.

[2] = tested on: 5 subjects; conditions: liquid preparation 2.4 g per 100 ml, 70 ml (974 mg in terms of magnesium) a day; cited from earlier work
[3] = tested on: feces; conditions: 3 g a day; statistically significant; cited from earlier work

OC[C@H]1O[C@H](OC[C@H]2O[C@H](O[C@]3(CO)O[C@H](CO)[C@@H](O)[C@@H]3O)[C@H](O)[C@@H](O)[C@@H]2O)[C@H](O)[C@@H](O)[C@H]1O [Raffinose]
Average Defecation Frequency ([1]; Dose/Day 2 g): 2.3 times/day | Average Fecal Weight ([1]; Dose/Day 2 g): 243 g/day | Maximum Transit Time through Digestive Tract (average) ([1]; Dose/Day 2 g): 31.0 (11.5) hour | Transit Time through Digestive Tract (average) ([1]; Dose/Day 2 g): 22.2 (2.5) hour

O=S(=O)([O-])[O-].[Mg+2] [Magnesium Sulfate]
Average Defecation Frequency ([1]; Dose/Day 4.5 g): 2.3 times/day | Average Fecal Weight ([1]; Dose/Day 4.5 g): 389 g/day | Maximum Transit Time through Digestive Tract (average) ([1]; Dose/Day 4.5 g): 35.8 (10.1) hour | Transit Time through Digestive Tract (average) ([1]; Dose/Day 4.5 g): 20.2 (2.4) hour | Cathartic effects ([1]; compared with magnesium oxide): stronger cathartic effects than magnesium oxide

[O]=[Mg] [activated magnesium oxide]
Cathartic drug effect [2]: its cathartic drug effect was shown

[O]=[Mg] [Magnesium Oxide]
Transit time and maximum transit time through the digestive tract (in words) ([1]; 0.17 to 1.5 g a day, in comparison with no administration (control)): shortened transit time and maximum transit time through the digestive tract were observed | Average fecal weight (in words) ([1]; 1.0 to 1.5 g intake a day): more than doubled | Loose stools ([1]; 1.0 to 1.5 g intake a day): caused loose stools having high a moisture content | Average Defecation Frequency ([1]; Dose/Day 0.17 g): 2.3 times/day | Average Fecal Weight ([1]; Dose/Day 0.17 g): 274 g/day | Maximum Transit Time through Digestive Tract (average) ([1]; Dose/Day 0.17 g): 38.1 (10.1) hour | Transit Time through Digestive Tract (average) ([1]; Dose/Day 0.17 g): 20.6 (4.1) hour | Average Defecation Frequency ([1]; Dose/Day 0.35 g): 2.0 times/day | Average Fecal Weight ([1]; Dose/Day 0.35 g): 204 g/day | Maximum Transit Time through Digestive Tract (average) ([1]; Dose/Day 0.35 g): 32.4 (7.6) hour | Transit Time through Digestive Tract (average) ([1]; Dose/Day 0.35 g): 17.5 (3.1) hour | Average Defecation Frequency ([1]; Dose/Day 0.50 g): 2.3 times/day | Average Fecal Weight ([1]; Dose/Day 0.50 g): 313 g/day | Maximum Transit Time through Digestive Tract (average) ([1]; Dose/Day 0.50 g): 35.6 (6.9) hour | Transit Time through Digestive Tract (average) ([1]; Dose/Day 0.50 g): 21.6 (6.8) hour | Average Defecation Frequency ([1]; Dose/Day 0.75 g): 2.3 times/day | Average Fecal Weight ([1]; Dose/Day 0.75 g): 235 g/day | Maximum Transit Time through Digestive Tract (average) ([1]; Dose/Day 0.75 g): 34.9 (7.2) hour | Transit Time through Digestive Tract (average) ([1]; Dose/Day 0.75 g): 21.0 (4.3) hour | Average Defecation Frequency ([1]; Dose/Day 1.0 g): 2.0 times/day | Average Fecal Weight ([1]; Dose/Day 1.0 g): 414 g/day | Maximum Transit Time through Digestive Tract (average) ([1]; Dose/Day 1.0 g): 37.1 (8.2) hour | Transit Time through Digestive Tract (average) ([1]; Dose/Day 1.0 g): 22.9 (2.8) hour | Average Defecation Frequency ([1]; Dose/Day 1.5 g): 2.3 times/day | Average Fecal Weight ([1]; Dose/Day 1.5 g): 426 g/day | Maximum Transit Time through Digestive Tract (average) ([1]; Dose/Day 1.5 g): 35.6 (6.4) hour | Transit Time through Digestive Tract (average) ([1]; Dose/Day 1.5 g): 19.5 (1.9) hour | Loose stools ([1]; up to 0.75 g intake a day): loose stools were not caused

OC[C@H]1O[C@@H](O[C@@H]2[C@@H](CO)OC(O)(CO)[C@H]2O)[C@H](O)[C@@H](O)[C@H]1O (mixture of isomers) [Lactulose]
Average Defecation Frequency ([1]; Dose/Day 1 g): 1.8 times/day | Average Fecal Weight ([1]; Dose/Day 1 g): 315 g/day | Maximum Transit Time through Digestive Tract (average) ([1]; Dose/Day 1 g): 34.4 (9.4) hour | Transit Time through Digestive Tract (average) ([1]; Dose/Day 1 g): 21.8 (3.1) hour | Azoreductase activity in feces [3]: lowered azoreductase activity | Nitroreductase activity in feces [3]: lowered nitroreductase activity | Number of the Bifidobacterium in feces [3]: increased number of the Bifidobacterium | Putrefactive metabolites in feces [3]: reduced putrefactive metabolites | β-glucuronidase activity in feces [3]: lowered β-glucuronidase activity

OC[C@H]1O[C@@H](O[C@H]2[C@H](O)[C@@H](O)[C@@H](O[C@]3(CO)O[C@H](CO)[C@@H](O)[C@@H]3O)O[C@@H]2CO)[C@H](O)[C@@H](O)[C@H]1O [Lactosucrose]
Average Defecation Frequency ([1]; Dose/Day 1.5 g): 2.0 times/day | Average Fecal Weight ([1]; Dose/Day 1.5 g): 267 g/day | Maximum Transit Time through Digestive Tract (average) ([1]; Dose/Day 1.5 g): 31.3 (8.6) hour | Transit Time through Digestive Tract (average) ([1]; Dose/Day 1.5 g): 19.7 (3.5) hour
